Where “and” joins values, the source holds several entries; their conditions need not be identical. Equal values may be shown once.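 In this assay, cells in 96-well plates receive the compound at five concentrations for 48 hours. Endpoints are linearly interpolated between the surrounding concentrations. GI50 marks 50% less growth. TGI marks complete inhibition of growth.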
How the values were obtained:
Experiment in all cases: NCI-60 cell line screen, 48 h
BT-549 breast = test system: BT-549 breast
RPMI-8226 leukemia = test system: RPMI-8226 leukemia
U251 CNS = test system: U251 CNS
K-562 leukemia = test system: K-562 leukemia
MCF7 breast = test system: MCF7 breast
IGROV1 ovarian = test system: IGROV1 ovarian
MDA-MB-435 = test system: MDA-MB-435
UO-31 renal = test system: UO-31 renal
M14 melanoma = test system: M14 melanoma
SK-OV-3 ovarian = test system: SK-OV-3 ovarian

| Compound | GI50 (BT-549 breast) | TGI (BT-549 breast) | GI50 (RPMI-8226 leukemia) | TGI (RPMI-8226 leukemia) | GI50 (U251 CNS) | TGI (U251 CNS) | GI50 (K-562 leukemia) | TGI (K-562 leukemia) | GI50 (MCF7 breast) | TGI (MCF7 breast) | GI50 (IGROV1 ovarian) | TGI (IGROV1 ovarian) | GI50 (MDA-MB-435) | TGI (MDA-MB-435) | GI50 (UO-31 renal) | TGI (UO-31 renal) | GI50 (M14 melanoma) | TGI (M14 melanoma) | GI50 (SK-OV-3 ovarian) | TGI (SK-OV-3 ovarian) |
| --- | --- | --- | --- | --- | --- | --- | --- | --- | --- | --- | --- | --- | --- | --- | --- | --- | --- | --- | --- | --- |
| COc1ccc(S(=O)(=O)NC2=NCCN2C(=S)SN2CCn3c2nsc3=S)cc1OC | 30.9 µM | > 100 µM | 7.93 µM | 27.5 µM | 22.3 µM | 53.4 µM | 27.4 µM | > 100 µM | 15.7 µM | 35.7 µM | 23.2 µM | > 100 µM | 19.8 µM | 44.1 µM | 35.8 µM | > 100 µM | 20.4 µM | 48.8 µM | 21.9 µM | 55.2 µM |
| O=C(Nc1ccc(Cl)cc1F)c1cc(F)ccc1O | 0.83 µM | 4.02 µM | 0.449 µM | 3.99 µM | 0.832 µM | > 38.8 µM | 0.609 µM | > 100 µM | 1.77 µM | 9.28 µM | 0.597 µM | 17.2 µM | 0.626 µM | 5.51 µM | 0.314 µM | 3.38 µM | 1.11 µM | 5.44 µM | 1.25 µM | 10.4 µM |
| CCc1nc(-n2c(CC)nc3ccccc3c2=O)nc(N)c1-c1ccc(Cl)cc1 | > 100 µM | > 100 µM | 1.24 µM | > 32 µM | > 100 µM | > 100 µM | 17.6 µM | > 100 µM | > 50.9 µM | > 100 µM | 48.5 µM | > 100 µM | 7.12 µM | > 100 µM | 23.7 µM | > 100 µM | 52.6 µM | > 100 µM | > 100 µM | > 100 µM |
| COc1ccccc1-c1ccc2nc(NC(=O)Nc3cc(C(F)(F)F)cc(C(F)(F)F)c3)sc2c1 | 1.62 µM | 3.72 µM | 1.63 µM | 5.76 µM | 2.31 µM | 10.3 µM | 1.54 µM | 8.95 µM | 2.28 µM | 10.9 µM | 2.83 µM | 10.7 µM | 2.27 µM | 6.73 µM | 1.79 µM | 4.07 µM | 1.54 µM | 3.22 µM | 2.92 µM | 11.4 µM |
| Cc1cc(Nc2cc(CN3CCOCC3)c3nc(C)c(Cc4ccc(Cl)cc4F)n3n2)n[nH]1 | 1.73 µM | 8.92 µM | 1.88 µM | 14.8 µM | 1.52 µM | 5.24 µM | 0.473 µM | 13.6 µM | 0.644 µM | 12.9 µM | 2.15 µM | 5.57 µM | 0.694 µM | 19.6 µM | 1.41 µM | 2.97 µM | 1.83 µM | 14.2 µM | 2.02 µM | 6.38 µM |
| COc1nc2c(cc1S(=O)(=O)c1ccccc1)CCc1c-2cnn1Cc1ccccc1 | 8.07 µM | > 100 µM | 3.49 µM | > 100 µM | 7.58 µM | > 100 µM | 3.02 µM | > 100 µM | 3.48 µM | 38.9 µM | 31.5 µM | > 100 µM | > 100 µM | > 100 µM | 4.3 µM | > 100 µM | > 100 µM | > 100 µM | 9.86 µM | > 100 µM |
| O=S(=O)(CC#CCCCOCC#Cc1ccccc1C#CCS(=O)(=O)c1ccccc1)c1ccccc1 | 19 µM | 34.8 µM | 11.6 µM | 31.4 µM | 20.5 µM | 41 µM | 15.9 µM | 39.6 µM | 16.3 µM | 35.3 µM | 11.8 µM | 25.7 µM | 26 µM | 62.4 µM | 17.7 µM | 35.4 µM | 25.2 µM | 56.5 µM | > 100 µM | > 100 µM |
| COc1cc(/C=C/C(=O)NC[C@]2(O)CCC3C4CCc5cc(O)ccc5C4CCC32C)ccc1O (stereo not given in full) | 5.54 µM | 52.1 µM | 3.16 µM | 16.7 µM | 8.47 µM | > 100 µM | 3.74 µM | 28.4 µM | 13.4 µM | > 100 µM | 10.9 µM | 62.7 µM | 4.46 µM | 37.5 µM | 4.93 µM | 49.3 µM | 4.99 µM | 37.6 µM | 82.6 µM | > 100 µM |
| O=C1c2ccccc2C(=O)c2c(NC(=O)C(Cl)CCl)cccc21 (stereo not given) | – | 31.2 µM | – | 2.11 µM | – | > 38.4 µM | – | 0.395 µM | – | 2.47 µM | – | 20 µM | – | 23 µM | – | 24.1 µM | – | 20.9 µM | – | 39.1 µM |
| FC(F)(F)c1[nH]ncc1-c1nc2c(N3CCCCC3)cc3[nH]ncc3c2c2c1CCCC2 | 0.643 µM | 1.37 µM | 0.534 µM | 2.44 µM | 0.87 µM | 5.67 µM | 1.04 µM | > 50 µM | 0.514 µM | > 15.4 µM | 0.556 µM | 3.66 µM | 0.741 µM | 2.19 µM | 0.873 µM | 3.01 µM | 0.6 µM | 1.42 µM | 0.523 µM | 4.22 µM |
| [C-]#[O+].[C-]#[O+].[Ir].[O-]c1ccc2ccccc2c1N=Nc1ccccc1 | – | 40.1 µM | – | 45.2 µM | – | 34.9 µM | – | 80.4 µM | – | 21 µM | – | 37.1 µM | – | 54.4 µM | – | 24.4 µM | – | 13.2 µM | – | > 68 µM |
| COc1ccc(-c2ccc3ncc4c(c3c2)n(-c2ccc(N3CCNCC3)c(C(F)(F)F)c2)c(=O)n4C)cn1 | < 0.01 µM and 0.00552 µM | 0.0556 µM and 0.0647 µM | < 0.01 µM and 0.00374 µM | 0.163 µM and 0.0549 µM | < 0.01 µM and 0.00869 µM | 0.13 µM and 0.429 µM | 0.00843 µM | 0.204 µM | 0.0035 µM | 0.0793 µM | < 0.01 µM and 0.0016 µM | 0.0332 µM and 0.0162 µM | < 0.01 µM and 0.00272 µM | 0.0732 µM and 0.106 µM | < 0.01 µM and 0.00417 µM | 0.196 µM and 0.0269 µM | 0.00455 µM | 0.0621 µM | < 0.01 µM and 0.006 µM | 0.0183 µM and 0.0462 µM |
| Clc1nc(Cl)c2ncn(C/C=C/Cn3cnc4c(Cl)nc(Cl)nc43)c2n1 | 16.7 µM | 31.3 µM | 10.4 µM | 25.8 µM | 16.8 µM | 30.7 µM | 15.5 µM | 55.8 µM | 6.69 µM | 21.6 µM | 11.8 µM | 25.7 µM | 19.8 µM | 39.4 µM | 17.9 µM | 34.5 µM | 21.2 µM | 39.7 µM | 44.3 µM | > 100 µM |

From PubChem BioAssay (NCI)
